Results from patent publication EP0565593B1, “REDUCING PESTICIDAL INTERACTIONS IN CROPS” (priority 1990, dated 1992).

Key:
Type in all cases: in vivo
cotton (COTT) = assay: Multi-crop greenhouse test, COUNTER 15G and safener PPI, herbicide POE (Examples 62-64; Tables 61-63); parameters: dose or concentration left out as unconfirmed; settings: Gossypium hirsutum, Biocide No. 1 8.96 Kg/Ha, antidote 4.48 Kg/Ha PPI where in label
Experimental: (§1) Tests according to this invention in various crops indicate widespread application of the invention. In Examples 62-66 below are described tests with a variety of herbicides contacted with COUNTER® 15G in the presence and absence of MON-7400 (Antidote No. 12); MON-13900 (No. 1); MON-4660 (No. 16) and flurazole (No. 16). Those tests were conducted according to Procedures IV or V described above and illustrated further in other foregoing examples. Plants used in all tests were, for crops (as abbreviated in parentheses); cotton (COTT); soybean (SOBE); CORN, grain sorghum (GRSO); wheat (WHEA) and RICE, and the weeds giant foxtail (GIFT) and velvetleaf (VELE). The data in the tables below represent averages of two replications.
(§2) In this test the crops and weeds were planted 1.3 cm deep in 13.7 cm X 27.7 cm pans containing Dupo silt loam soil. The test safeners were applied in acetone solution and COUNTER 15G as dry granules to soil cover layers and incorporated by shaking in a bag. Treated cover layers were placed on seeded pans which were transferred to greenhouse benches and subirrigated. Herbicide was applied POE six (6) days after PPI initiation and observations of plant injury made ten (10) days later; results are shown in Table 61. The herbicide used in this example was BEACON (No. 8).
(§3) The test procedure described in Example 62 was repeated using ACCENT® (Herbicide No. 7) as the herbicide; the biocide and safeners were the same.

Corn = assay: Multi-crop greenhouse test, herbicide POE (Examples 62-64; Tables 61-63); parameters: inhibition: dose or concentration left out as unconfirmed; settings: Zea mays, Biocide No. 1 8.96 Kg/Ha, antidote 4.48 Kg/Ha PPI where in label
Experimental: as §1, §2, §3

Giant foxtail (GIFT) = assay: as above; parameters: dose or concentration left out as unconfirmed; settings: Setaria faberi, Biocide No. 1 8.96 Kg/Ha, antidote 4.48 Kg/Ha PPI where in label
Experimental: as §1, §2, §3

RICE = assay: as above; parameters: dose or concentration left out as unconfirmed; settings: Oryza sativa, Biocide No. 1 8.96 Kg/Ha, antidote 4.48 Kg/Ha PPI where in label
Experimental: as §1, §2, §3

Velvetleaf (VELE) = assay: as above; parameters: dose or concentration left out as unconfirmed; settings: Abutilon theophrasti, Biocide No. 1 8.96 Kg/Ha, antidote 4.48 Kg/Ha PPI where in label
Experimental: as §1, §2, §3

grain sorghum (GRSO) = assay: as above; parameters: dose or concentration left out as unconfirmed; settings: Biocide No. 1 8.96 Kg/Ha, antidote 4.48 Kg/Ha PPI where in label
Experimental: as §1, §2, §3

soybean (SOBE) = assay: as above; parameters: dose or concentration left out as unconfirmed; settings: Glycine max, Biocide No. 1 8.96 Kg/Ha, antidote 4.48 Kg/Ha PPI where in label
Experimental: as §1, §2, §3

wheat (WHEA) = assay: as above; parameters: dose or concentration left out as unconfirmed; settings: Triticum aestivum, Biocide No. 1 8.96 Kg/Ha, antidote 4.48 Kg/Ha PPI where in label
Experimental: as §1, §2, §3

[1] = Table 62, Herb. No. 7 (ACCENT) 0.0044 Kg/Ha POE
[2] = Table 62, Herb. No. 7 (ACCENT) 0.035 Kg/Ha POE
[3] = Table 62, Herb. No. 7 (ACCENT) 0.28 Kg/Ha POE
[4] = Table 63, Herb. No. 18 (PURSUIT) 0.009 Kg/Ha POE
[5] = Table 63, Herb. No. 18 (PURSUIT) 0.035 Kg/Ha POE
[6] = Table 63, Herb. No. 18 (PURSUIT) 0.14 Kg/Ha POE

With `COc1cc(OC)nc(NC(=O)NS(=O)(=O)c2ncccc2C(=O)N(C)C)n1` [Herb. No. 7] the inhibition (cotton (COTT); [1]) was 25%, the inhibition (cotton (COTT); [2]) was 40% and the inhibition (cotton (COTT); [3]) was 50%. For the same molecule, the inhibition (Corn; [1]) was 0%, the inhibition (Corn; [2]) was 0% and the inhibition (Corn; [3]) was 0%. The inhibition (Giant foxtail (GIFT); [1]) was 65%, the inhibition (Giant foxtail (GIFT); [2]) was 70% and the inhibition (Giant foxtail (GIFT); [3]) was 75%. The inhibition (RICE; [1]) was 20%, the inhibition (RICE; [2]) was 40% and the inhibition (RICE; [3]) was 50%. The inhibition (Velvetleaf (VELE); [1]) was 40%, the inhibition (Velvetleaf (VELE); [2]) was 60% and the inhibition (Velvetleaf (VELE); [3]) was 65%. For the same molecule, the inhibition (grain sorghum (GRSO); [1]) was 60%, the inhibition (grain sorghum (GRSO); [2]) was 65% and the inhibition (grain sorghum (GRSO); [3]) was 75%. It also gave an inhibition (soybean (SOBE); [1]) of 10%, an inhibition (soybean (SOBE); [2]) of 20% and an inhibition (soybean (SOBE); [3]) of 40%. It also gave an inhibition (wheat (WHEA); [1]) of 35%, an inhibition (wheat (WHEA); [2]) of 45% and an inhibition (wheat (WHEA); [3]) of 60%.
`CCc1cnc(C2=NC(C)(C(C)C)C(=O)N2)c(C(=O)O)c1` (stereo not drawn) [Herb. No. 18] was tested, and the inhibition (cotton (COTT); [4]) was 40%, the inhibition (cotton (COTT); [5]) was 45% and the inhibition (cotton (COTT); [6]) was 50%. It also gave an inhibition (Corn; [4]) of 5%, an inhibition (Corn; [5]) of 25% and an inhibition (Corn; [6]) of 40%. It also gave an inhibition (Giant foxtail (GIFT); [4]) of 60%, an inhibition (Giant foxtail (GIFT); [5]) of 80% and an inhibition (Giant foxtail (GIFT); [6]) of 80%. The inhibition (RICE; [4]) was 20%, the inhibition (RICE; [5]) was 45% and the inhibition (RICE; [6]) was 60%. For the same molecule, the inhibition (Velvetleaf (VELE); [4]) was 75%, the inhibition (Velvetleaf (VELE); [5]) was 95% and the inhibition (Velvetleaf (VELE); [6]) was 100%. It also gave an inhibition (grain sorghum (GRSO); [4]) of 60%, an inhibition (grain sorghum (GRSO); [5]) of 65% and an inhibition (grain sorghum (GRSO); [6]) of 75%. The inhibition (soybean (SOBE); [4]) was 5%, the inhibition (soybean (SOBE); [5]) was 10% and the inhibition (soybean (SOBE); [6]) was 10%. For the same molecule, the inhibition (wheat (WHEA); [4]) was 0%, the inhibition (wheat (WHEA); [5]) was 20% and the inhibition (wheat (WHEA); [6]) was 35%.
